For one assay, the system named is recombinant SmCB1. Briefly: Kinetic inhibition assay with recombinant SmCB1 (k2nd). The conditions noted are these: for decrease in inhibitory potency vs gallinamide A: ratio of k2nd values; for SmCB1 inhibition k2nd: second-order rate constant (kinact/Ki), substrate Cbz–Phe–Arg–AMC, pH 5.5, 37 °C, mean ± SE. The class given is biochemical, S. mansoni. How it is done:
Gallinamide A and a series of its 18 derivatives were evaluated in vitro as inhibitors of SmCB1 to explore the binding specificities of the subsites in the enzyme’s active site. The gallinamide A inhibitor scaffold can be defined by positions P4 through P1′ (Schechter and Berger nomenclature[37]), which were assigned according to the binding mode analysis (see the crystallographic section below). The substituents R4, R1, and R1′ introduced on the scaffold (Table 2) are numbered according to the respective positions P4, P1, and P1′. The compounds’ second-order rate constants (k2nd) were determined using a kinetic inhibition assay with recombinant SmCB1 and the substrate, Cbz–Phe–Arg–AMC.
Inhibition measurements were performed in duplicate in 96-well microplates (100 μL assay volume) at 37 °C. SmCB1 (40 pM) was added to a mixture of the fluorogenic substrate Cbz–Phe–Arg–AMC (25 μM) and an inhibitor (0–100 μM) in 0.1 M sodium acetate, pH 5.5, containing 2.5 mM dithiothreitol and 0.01% (w/v) BRIJ 35. Substrate hydrolysis was monitored in an Infinite M1000 microplate reader (Tecan) at excitation and emission wavelengths of 360 and 465 nm, respectively, for up to 150 min. An observed first-order rate constant, kobs, was calculated at each inhibitor concentration by fitting the progress curve to the equation P = vi/kobs(1 – exp(−kobst)) + d where P is the product formation, t is the reaction time, vi is the initial velocity, and d is the offset. […] The second-order rate constant, k2nd, (and SE value) was determined by fitting the linear equation kobs = (k2nd[I])/(1 + [S]/Km), where [S] is the substrate concentration, [I] is the inhibitor concentration, and KM is the Michaelis–Menten constant. The KM value determined for SmCB1 was 25 μM. […] To determine IC50 values, SmCB1 (40 pM) was preincubated with the inhibitor (0–100 μM) for 30 min under assay conditions as described above, followed by the addition of the fluorogenic substrate Cbz–Phe–Arg–AMC (20 μM). Substrate hydrolysis was monitored for 30 min in a microplate reader as described above. The IC50 values were determined by nonlinear regression using GraFit software (Erithacus Software).

For assay [1], the system named is S. mansoni newly transformed schistosomula (NTS). Briefly: Phenotypic screen with newly transformed schistosomula (NTS). The class given is cell-based. The method, then:
The same 19 gallinamides were screened for bioactivity against S. mansoni newly transformed schistosomula (NTS), the postinvasive parasite stage that feeds on host blood.[40] In this primary assay, the NTS were exposed to 1 and 10 μM compounds for 3 days, and the resulting phenotypic responses were graded from 0 through 4, i.e., the least to the most severe (Table 2 and Table S1). […] The effects were more pronounced after 72 h, and when the higher, 10 μM, compound concentration was used (Table S1). […] Also, compared to gallinamide A and its analogs, 3 has an additional N-terminal N-acetamide modification that further reduces bioactivity (Table 2).
Phenotypic screens employed S. mansoni newly transformed schistosomula (NTS) and adults and were carried out as described previously.[18]−[20],[42] NTS were prepared by mechanically transforming infective larvae (cercariae).[40],[42] NTS (200–300 parasites) were incubated in flat-bottomed 96-well plates in 200 μL of Basch Medium 169 containing 5% (v/v) FBS, 100 U mL^–1 penicillin and 100 μg mL^–1 streptomycin (complete Basch medium)[75] at 5% CO2 and 37 °C.[76],[77] Inhibitors were added at final concentrations of 1 and 10 μM, and changes in phenotypes were observed under an inverted microscope every 24 h for up to 72 h.
A constrained nomenclature of “descriptors”[39],[42] was used to record the multiple and dynamic changes in movement, shape, and translucence that the schistosome parasite is capable of (Table S1 for NTS and Table S3 for adults). These descriptors were then converted into an ordinal “severity score” system ranging from 0 (no effect) to 4 (maximum effect), which allows for the relative comparison of compound effects.

[2] abbreviates: 1 μM compound, 24 h, scale 0 (no effect) to 4 (most severe).
[3] abbreviates: 1 μM compound, 48 h, scale 0 to 4.
Where [4] appears, read: 1 μM compound, 72 h, scale 0 to 4.
[5] abbreviates: 10 µM compound, 24 h, scale 0 to 4.
Where [6] appears, read: 10 µM compound, 48 h, scale 0 to 4.
Setting [7] is: 10 µM compound, 72 h, scale 0 to 4.

SMILES strings stand for the structures. Where “and” joins values, the source holds several entries; their conditions need not be identical. Equal entries are not always repeated.

For `CCC(C)C(C(=O)OC(CC(C)C)C(=O)NC(CC(C)C)C(=O)NC(C)C=CC(=O)N1C(=O)C=C(OC)C1CC(C)C)N(C)C` (stereo not drawn) [compound 1], the “decrease in inhibitory potency vs gallinamide A” value (“decrease in inhibitory potency” below) in the assay on recombinant SmCB1 came out at 2 fold. For the same molecule, the “SmCB1 inhibition k2nd” value came out at 3394 ± 133 M^–1·s^–1 in the assay with recombinant SmCB1 and 3394 M^–1·s^–1 in the assay on recombinant SmCB1 (listed as Cpd.1). Besides, the schistosomula phenotype descriptors result in assay [1] (1 µM compound, 24 h) is “R, unc”. In addition, the schistosomula severity score is listed as 2 in assay [1] (setting [2]); 4 in assay [1] (setting [3]); 4 in assay [1] (setting [4]); 4 in assay [1] (setting [5]); 4 in assay [1] (setting [6]); 4 in assay [1] (setting [7]).
Consider `COC1=CC(=O)N(C(=O)/C=C/[C@H](C)NC(=O)[C@H](CC(C)C)NC(=O)[C@H](CC(C)C)OC(=O)[C@H](Cc2ccccc2)N(C)C)[C@H]1Cc1ccccc1` [compound 6], for which the “decrease in inhibitory potency” value in the assay with recombinant SmCB1 is on record as 3.4 fold. Moreover, the “SmCB1 inhibition k2nd” value in the assay on recombinant SmCB1 is recorded as 1930 ± 304 M^–1·s^–1; in the assay on recombinant SmCB1 (listed as Cpd.6), 1930 M^–1·s^–1. Further, the schistosomula phenotype descriptors result in assay [1] (1 µM compound, 24 h) is on record as “R, unc”. Further, the schistosomula severity score in assay [1] (setting [2]) was determined as 2; in assay [1] (setting [3]) it was 4; in assay [1] (setting [4]) it was 4; in assay [1] (setting [5]), 4; in assay [1] (setting [6]), 4; in assay [1] (setting [7]), 4.
Consider `CCC(C)C(C(=O)OC(CC(C)C)C(=O)NC(CC(C)C)C(=O)NC(C)C=CC(=O)N1C(=O)C=C(OC)C1Cc1ccccc1)N(C)C` (stereo not drawn) [compound 9], for which the “decrease in inhibitory potency” value with recombinant SmCB1 is reported as 8.4 fold. The “SmCB1 inhibition k2nd” value in the assay on recombinant SmCB1 was found to be 793 ± 75 M^–1·s^–1. The schistosomula severity score in assay [1] (setting [2]) is 1; in assay [1] (setting [3]) it was 2; in assay [1] (setting [4]), 4; in assay [1] (setting [5]), 3; in assay [1] (setting [6]), 4; in assay [1] (setting [7]), 4. The schistosomula phenotype descriptors entry is reported as “Dark, R” in assay [1] (1 µM compound, 48 h) and “Dark, R, S” in assay [1] (10 µM compound, 24 h).
`CC[C@H](C)[C@@H](C(=O)O[C@@H](CC(C)C)C(=O)N[C@@H](CC(C)C)C(=O)N[C@@H](C)/C=C/C(=O)N1C(=O)C=C(OC)[C@@H]1C)N(C)C` [gallinamide A]: the “SmCB1 inhibition k2nd” value was 6644 M^–1·s^–1 and 6644 ± 532 M^–1·s^–1 in the assay with recombinant SmCB1; 6644 M^–1·s^–1 in the assay on recombinant SmCB1 (listed as Gallinamide A). The schistosomula severity score in assay [1] (setting [2]) is recorded as 1; in assay [1] (setting [3]), 2; in assay [1] (setting [4]), 4; in assay [1] (setting [5]), 4; in assay [1] (setting [6]) it was 4; in assay [1] (setting [7]), 4. Further, in assay [1] (1 µM compound, 48 h), the schistosomula phenotype descriptors result is “Dark, R”.
